Measurements published in ChEMBL document CHEMBL1158749, “Cytotoxic cembranoid diterpenes from a soft coral Sinularia gibberosa” (J Nat Prod, 2005).
In brackets after ≈: the same amount, converted by molar mass.

Experiments:
Assay type in all cases: functional, cell-based
[1] = tested on: HL-60; assay: Cytotoxicity against human HL60 cells by MTT assay
[2] = tested on: BGC-823; assay: Cytotoxicity against human BGC823 cells by SRB assay
[3] = tested on: MDA-MB-435; assay: Cytotoxicity against human MDA-MB-435 cells by SRB assay

SMILES	IC50 [1]	IC50 [2]	IC50 [3]
C=C1C(=O)O[C@@H]2[C@@H]1C[C@@H]1O[C@]1(C)CC/C=C(\C)CC/C=C(\C)[C@@H]2O [SINULAROLIDE E]	6 µg/mL (≈ 18 µM)	8.6 µg/mL (≈ 25.9 µM)	2.1 µg/mL (≈ 6.32 µM)
C=C1C(=O)O[C@@H]2[C@@H]1C[C@H]1O[C@]1(CO)CC/C=C(\C)CC/C=C(\C)[C@H]2O [SINULAROLIDE B]	5.2 µg/mL (≈ 14.9 µM)	6.3 µg/mL (≈ 18.1 µM)	8 µg/mL (≈ 23 µM)
C=C1C(=O)O[C@@H]2[C@@H]1C[C@H](O)[C@@](O)(CO)CC/C=C(\C)CC/C=C(\C)[C@@H]2O [SINULAROLIDE A]	> 10 µg/mL	> 10 µg/mL	> 10 µg/mL
C=C1C(=O)O[C@@H]2[C@@H]1C[C@H]1O[C@]1(CO)CC/C=C(\C)CC/C=C(\C)[C@@H]2O [SINULAROLIDE C]	5.1 µg/mL (≈ 14.6 µM)	5.2 µg/mL (≈ 14.9 µM)	7.7 µg/mL (≈ 22.1 µM)
C=C1C(=O)O[C@H]2C/C(C)=C/CC/C(C)=C/CC[C@@]3(CO)O[C@@H]3C[C@H]12 [SINULAROLIDE D]	2.3 µg/mL (≈ 6.92 µM)	6.1 µg/mL (≈ 18.3 µM)	> 10 µg/mL
